Measurements: patent US9877956B2, “Antiviral compounds and methods of use thereof” (Trana Discovery, Inc., priority 2014, dated 2018)
≈ marks a conversion by molar mass, not a printed value. Where “and” joins values, the source holds several entries; their conditions need not be identical. Equal entries are not always repeated.

Experiments:
HIV-1/Ba-L = test: Inhibition of HIV-1 Ba-L replication in PBMC (RT values); type: cell-based; settings: for % VC: RT relative to virus control; for RT Values (cpm), SAMPLE: individual samples
Procedure: These compounds were further screened for activity in HIV-1-infected peripheral blood mononuclear cells (PBMC). The data (experiments were repeated, so duplicates are shown) is summarized in the tables below, and also in FIGS. 4A-B and 5A-B.
The HIV strain was HIV-1/Ba-L. The titer was 0.1 μL/well.

HIV-1 92/HT/599 = HIV-1 92/HT/599 replication in human PBMCs, reverse transcriptase in culture supernatants (RLU); type: cell-based; settings: for RLU (Relative Light Units), SAMPLE: individual samples, listed as Trana 156
Procedure: In these studies, PHA-P stimulated PBMCs from three donors were pooled together and re-suspended in fresh tissue culture medium at 1×10^6 cells/mL and plated in the interior wells of a 96 well round bottom microplate at 50µl/well. A 100µL volume of 9 concentrations of compound serially diluted were transferred to the round-bottom 96 well plate containing the cells in triplicate. Fifty microliters (µL) of HIV-1 at a pre-determined dilution was added. Each plate contained cell control wells and virus control wells in parallel with the experimental wells. After 7 days in culture, efficacy was evaluated by measuring the reverse transcriptase in the culture supernatants and the cells were stained with the tetrazolium dye XTT to evaluate cytotoxicity.

[1] = Human immunodeficiency virus 1, BAL, PBMC, HIV-1 Ba-L in PBMC

**Q.** How did the “% VC” value (HIV-1/Ba-L; 0.01 μM) turn out when `CC1(C)OC(=O)C(=Cc2ccc(I)o2)C(=O)O1` [HIT #156] was run?
**A.** 112.3% and 106.4%

**Q.** What about the “RT Values (cpm), SAMPLE” value (HIV-1/Ba-L; 0.01 μM) of the same compound?
**A.** 10480 cpm and 8884 cpm and 11894 cpm and 25643 cpm and 28270 cpm and 33067 cpm

**Q.** And the “% VC” value (HIV-1/Ba-L; 0.03 μM)?
**A.** 84.0% and 99.4%

**Q.** And the “RT Values (cpm), SAMPLE” value (HIV-1/Ba-L; 0.03 μM)?
**A.** 6505 cpm and 8625 cpm and 8243 cpm and 25769 cpm and 26494 cpm and 29027 cpm

**Q.** And the “% VC” value (HIV-1/Ba-L; 0.10 μM)?
**A.** 68.9% and 122.1%

**Q.** And the “RT Values (cpm), SAMPLE” value (HIV-1/Ba-L; 0.10 μM)?
**A.** 8064 cpm and 6238 cpm and 4871 cpm and 38847 cpm and 24637 cpm and 36331 cpm

**Q.** What about the “% VC” value (HIV-1/Ba-L; 0.32 μM) of the same compound?
**A.** 81.3% and 86.3%

**Q.** What about the “RT Values (cpm), SAMPLE” value (HIV-1/Ba-L; 0.32 μM) of the same compound?
**A.** 8253 cpm and 7009 cpm and 7376 cpm and 18012 cpm and 26707 cpm and 25800 cpm

**Q.** And the “% VC” value (HIV-1/Ba-L; 1.00 μM)?
**A.** 64.5% and 85.3%

**Q.** And the “RT Values (cpm), SAMPLE” value (HIV-1/Ba-L; 1.00 μM)?
**A.** 9732 cpm and 5647 cpm and 2583 cpm and 21965 cpm and 22751 cpm and 25042 cpm

**Q.** What about the “% VC” value (HIV-1/Ba-L; 3.16 μM) of the same compound?
**A.** 27.9% and 43.2%

**Q.** And the “RT Values (cpm), SAMPLE” value (HIV-1/Ba-L; 3.16 μM)?
**A.** 6132 cpm and 1058 cpm and 586 cpm and 6829 cpm and 9899 cpm and 18609 cpm

**Q.** What about the “% VC” value (HIV-1/Ba-L; 10.0 μM) of the same compound?
**A.** 6.4% and 12.6%

**Q.** What about the “RT Values (cpm), SAMPLE” value (HIV-1/Ba-L; 10.0 μM) of the same compound?
**A.** 635 cpm and 579 cpm and 575 cpm and 9437 cpm and 247 cpm and 585 cpm

**Q.** And the “% VC” value (HIV-1/Ba-L; 31.6 μM)?
**A.** 1.6% and 2.3%

**Q.** What about the “RT Values (cpm), SAMPLE” value (HIV-1/Ba-L; 31.6 μM) of the same compound?
**A.** 54 cpm and 94 cpm and 290 cpm and 120 cpm and 1345 cpm and 378 cpm

**Q.** And the “% VC” value (HIV-1/Ba-L; 100 μM)?
**A.** 0.1% and 0.0%

**Q.** What about the “RT Values (cpm), SAMPLE” value (HIV-1/Ba-L; 100 μM) of the same compound?
**A.** 18 cpm and 2 cpm and 0 cpm

**Q.** And the IC50 (HIV-1/Ba-L; HIV-1 Ba-L in PBMC)?
**A.** 2630 nM

**Q.** What about the IC90 (HIV-1/Ba-L; HIV-1 Ba-L in PBMC) of the same compound?
**A.** 13.3 µM

**Q.** What about the “IC 95%” value (HIV-1/Ba-L; HIV-1 Ba-L in PBMC) of the same compound?
**A.** 14.0 µM and 23.3 µM

**Q.** What about the IC50 (HIV-1/Ba-L; [1]) of the same compound?
**A.** 1580 nM

**Q.** And the IC90 (HIV-1/Ba-L; [1])?
**A.** 8.26 µM

**Q.** And the “ANTIVIRAL INDEX (AI) 50%” value (HIV-1/Ba-L; TC/IC at 50%)?
**A.** >63.3 and >38.1

**Q.** What about the “ANTIVIRAL INDEX (AI) 90%” value (HIV-1/Ba-L; TC/IC at 90%) of the same compound?
**A.** >12.1 and >7.51

**Q.** And the “ANTIVIRAL INDEX (AI) 95%” value (HIV-1/Ba-L; TC/IC at 95%)?
**A.** >7.14 and >4.30

**Q.** And the “% Virus Control” value (HIV-1 92/HT/599; 0.32 μg/ml)?
**A.** 93.58%

**Q.** And the “Antiviral Test Values Mean RLU” value (HIV-1 92/HT/599; 0.32 μg/ml)?
**A.** 18048.7 RLU

**Q.** And the “RLU (Relative Light Units), SAMPLE” value (HIV-1 92/HT/599; 0.32 μg/ml)?
**A.** 9520.0 RLU and 22416.0 RLU and 22210.0 RLU

**Q.** And the “% Virus Control” value (HIV-1 92/HT/599; 1 μg/ml)?
**A.** 110.39%

**Q.** And the “Antiviral Test Values Mean RLU” value (HIV-1 92/HT/599; 1 μg/ml)?
**A.** 21291.7 RLU

**Q.** What about the “RLU (Relative Light Units), SAMPLE” value (HIV-1 92/HT/599; 1 μg/ml) of the same compound?
**A.** 24338.0 RLU and 22848.0 RLU and 16689.0 RLU

**Q.** And the “% Virus Control” value (HIV-1 92/HT/599; 3.16 μg/ml)?
**A.** 62.76%

**Q.** What about the “Antiviral Test Values Mean RLU” value (HIV-1 92/HT/599; 3.16 μg/ml) of the same compound?
**A.** 12105.7 RLU

**Q.** What about the “RLU (Relative Light Units), SAMPLE” value (HIV-1 92/HT/599; 3.16 μg/ml) of the same compound?
**A.** 9530.0 RLU and 14041.0 RLU and 12746.0 RLU

**Q.** What about the “% Virus Control” value (HIV-1 92/HT/599; 9.99 μg/ml) of the same compound?
**A.** 4.15%

**Q.** And the “Antiviral Test Values Mean RLU” value (HIV-1 92/HT/599; 9.99 μg/ml)?
**A.** 800.0 RLU

**Q.** And the “RLU (Relative Light Units), SAMPLE” value (HIV-1 92/HT/599; 9.99 μg/ml)?
**A.** 138.0 RLU and 48.0 RLU and 2214.0 RLU

**Q.** And the “% Virus Control” value (HIV-1 92/HT/599; 31.6 μg/ml)?
**A.** 0.21%

**Q.** What about the “Antiviral Test Values Mean RLU” value (HIV-1 92/HT/599; 31.6 μg/ml) of the same compound?
**A.** 41.3 RLU

**Q.** And the “RLU (Relative Light Units), SAMPLE” value (HIV-1 92/HT/599; 31.6 μg/ml)?
**A.** 46.0 RLU and 42.0 RLU and 36.0 RLU

**Q.** What about the “% Virus Control” value (HIV-1 92/HT/599; 100 μg/ml) of the same compound?
**A.** 0.31%

**Q.** What about the “Antiviral Test Values Mean RLU” value (HIV-1 92/HT/599; 100 μg/ml) of the same compound?
**A.** 60.7 RLU

**Q.** What about the “RLU (Relative Light Units), SAMPLE” value (HIV-1 92/HT/599; 100 μg/ml) of the same compound?
**A.** 68.0 RLU and 62.0 RLU and 52.0 RLU

**Q.** And the “EC 25%” value (HIV-1 92/HT/599; HIV-1 92/HT/599, human PBMCs)?
**A.** 2.35 µg/mL (≈ 6.75 µM)

**Q.** What about the “EC 95%” value (HIV-1 92/HT/599; HIV-1 92/HT/599, human PBMCs) of the same compound?
**A.** 9.82 µg/mL (≈ 28.2 µM)

**Q.** And the EC50 (HIV-1 92/HT/599; Human immunodeficiency virus 1, PBMC, read-out: EC50 (EC 50%), HIV-1 92/HT/599, human PBMCs)?
**A.** 4.06 µg/mL (≈ 11.7 µM)

**Q.** What about the “Therapeutic Index (TI) 25%” value (HIV-1 92/HT/599; TC/EC at 25%) of the same compound?
**A.** 5.23

**Q.** What about the “Therapeutic Index (TI) 50%” value (HIV-1 92/HT/599; TC/EC at 50%) of the same compound?
**A.** 4.43
